The text below walks through data of ChEMBL document CHEMBL4342489, “Structure-Activity Relationship Evaluation of Wasp Toxin β-PMTX Leads to Analogs with Superior Activity for Human Neuronal Sodium Channels” (ACS Med Chem Lett, 2020).

Data set [1] concerns the target Sodium channel protein type 1 subunit alpha (Homo sapiens) (UniProt P35498). The data set is described as follows: Activation of human Nav1.1 expressed in HEK293 cells assessed as ratio of compound activation AUC to baseline activation AUC at 0.12 uM at -120 mV holding potential by Qpatch assay. Format: cell-based. For orientation: The patch-clamp technique gives a direct electrical read-out from membranes.

For data set [2], the target named is Sodium channel protein type 9 subunit alpha (Homo sapiens) (UniProt Q15858). The data set is described as follows: Activation of human Nav1.7 expressed in HEK293 cells assessed as ratio of compound activation AUC to baseline activation AUC at 3.3 uM at -120 mV holding potential by Qpatch assay. The data set is classed as cell-based.
In data set [3] the target is Sodium channel protein type 8 subunit alpha (Homo sapiens) (UniProt Q9UQD0). The data set is described as follows: Activation of human Nav1.6 expressed in HEK293 cells assessed as ratio of compound activation AUC to baseline activation AUC at 3.3 uM at -120 mV holding potential by Qpatch assay. Format: cell-based.
Data set [4] addresses Sodium channel protein type 2 subunit alpha (Homo sapiens) (UniProt Q99250). In words: Activation of human Nav1.2 expressed in CHOK1 cells assessed as ratio of compound activation AUC to baseline activation AUC at 3.3 uM at -120 mV holding potential by Qpatch assay. The data set is classed as cell-based.
The target in data set [5] is Sodium channel protein type 4 subunit alpha (Homo sapiens) (UniProt P35499). In words: Activation of human Nav1.4 expressed in HEK293 cells assessed as ratio of compound activation AUC to baseline activation AUC at 3.3 uM at -120 mV holding potential by Qpatch assay. The data set is classed as cell-based.
Sodium channel protein type 4 subunit alpha (Homo sapiens), sequence (P35499 whole entry, looked up): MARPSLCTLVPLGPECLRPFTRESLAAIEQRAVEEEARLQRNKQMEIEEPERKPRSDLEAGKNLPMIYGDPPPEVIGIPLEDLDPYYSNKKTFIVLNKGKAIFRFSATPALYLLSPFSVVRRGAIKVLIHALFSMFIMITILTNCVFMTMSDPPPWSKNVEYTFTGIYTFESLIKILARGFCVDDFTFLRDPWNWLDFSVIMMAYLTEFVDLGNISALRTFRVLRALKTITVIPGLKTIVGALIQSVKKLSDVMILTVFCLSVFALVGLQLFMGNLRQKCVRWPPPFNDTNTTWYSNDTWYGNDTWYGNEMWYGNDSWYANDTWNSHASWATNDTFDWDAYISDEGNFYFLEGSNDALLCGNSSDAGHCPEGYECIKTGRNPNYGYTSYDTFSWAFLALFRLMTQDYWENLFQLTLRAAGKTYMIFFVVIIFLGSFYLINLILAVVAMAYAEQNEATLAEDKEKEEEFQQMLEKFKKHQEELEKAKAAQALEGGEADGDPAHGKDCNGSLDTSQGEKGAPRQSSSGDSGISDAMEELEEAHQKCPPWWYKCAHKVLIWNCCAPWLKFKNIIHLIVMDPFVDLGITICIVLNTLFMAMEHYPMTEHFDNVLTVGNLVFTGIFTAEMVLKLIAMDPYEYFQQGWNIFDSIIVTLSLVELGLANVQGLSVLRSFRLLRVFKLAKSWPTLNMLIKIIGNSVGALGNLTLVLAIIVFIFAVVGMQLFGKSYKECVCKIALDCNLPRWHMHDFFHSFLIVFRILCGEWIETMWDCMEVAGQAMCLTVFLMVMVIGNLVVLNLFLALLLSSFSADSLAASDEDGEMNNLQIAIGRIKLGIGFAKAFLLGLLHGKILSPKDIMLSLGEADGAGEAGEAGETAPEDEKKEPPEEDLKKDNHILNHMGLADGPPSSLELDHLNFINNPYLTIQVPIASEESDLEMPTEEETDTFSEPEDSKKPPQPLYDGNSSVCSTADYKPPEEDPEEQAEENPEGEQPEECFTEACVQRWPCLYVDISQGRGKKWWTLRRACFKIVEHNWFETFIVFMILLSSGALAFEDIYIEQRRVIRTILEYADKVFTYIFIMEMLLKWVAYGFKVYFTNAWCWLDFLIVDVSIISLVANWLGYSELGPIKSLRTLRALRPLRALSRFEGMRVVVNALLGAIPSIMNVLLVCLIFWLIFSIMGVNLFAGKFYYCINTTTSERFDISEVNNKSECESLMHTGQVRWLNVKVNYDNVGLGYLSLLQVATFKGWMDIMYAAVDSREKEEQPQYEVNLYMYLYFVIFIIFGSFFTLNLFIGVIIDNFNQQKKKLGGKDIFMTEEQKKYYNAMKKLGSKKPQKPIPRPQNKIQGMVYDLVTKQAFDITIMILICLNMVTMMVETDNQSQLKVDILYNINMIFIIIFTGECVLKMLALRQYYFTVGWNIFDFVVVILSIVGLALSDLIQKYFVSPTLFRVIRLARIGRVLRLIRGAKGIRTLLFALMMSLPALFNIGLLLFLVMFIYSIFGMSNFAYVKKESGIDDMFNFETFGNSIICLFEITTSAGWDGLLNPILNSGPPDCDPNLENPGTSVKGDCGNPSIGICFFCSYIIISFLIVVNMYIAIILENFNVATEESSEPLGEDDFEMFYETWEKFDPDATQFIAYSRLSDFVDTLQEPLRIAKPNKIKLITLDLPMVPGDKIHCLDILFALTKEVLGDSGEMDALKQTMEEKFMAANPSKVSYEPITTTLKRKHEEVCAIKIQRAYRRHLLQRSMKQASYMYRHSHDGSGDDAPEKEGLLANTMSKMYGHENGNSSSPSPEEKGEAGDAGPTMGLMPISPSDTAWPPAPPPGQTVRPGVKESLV
For data set [6], the target named is Sodium channel protein type 5 subunit alpha (Homo sapiens, UniProt Q14524). In words: Activation of human Nav1.5 expressed in HEK293 cells assessed as ratio of compound activation AUC to baseline activation AUC at 3.3 uM at -120 mV holding potential by Qpatch assay. The settings on record: hek293, 3.3 µM. Format: cell-based.
Sodium channel protein type 5 subunit alpha, sequence (Q14524 whole entry): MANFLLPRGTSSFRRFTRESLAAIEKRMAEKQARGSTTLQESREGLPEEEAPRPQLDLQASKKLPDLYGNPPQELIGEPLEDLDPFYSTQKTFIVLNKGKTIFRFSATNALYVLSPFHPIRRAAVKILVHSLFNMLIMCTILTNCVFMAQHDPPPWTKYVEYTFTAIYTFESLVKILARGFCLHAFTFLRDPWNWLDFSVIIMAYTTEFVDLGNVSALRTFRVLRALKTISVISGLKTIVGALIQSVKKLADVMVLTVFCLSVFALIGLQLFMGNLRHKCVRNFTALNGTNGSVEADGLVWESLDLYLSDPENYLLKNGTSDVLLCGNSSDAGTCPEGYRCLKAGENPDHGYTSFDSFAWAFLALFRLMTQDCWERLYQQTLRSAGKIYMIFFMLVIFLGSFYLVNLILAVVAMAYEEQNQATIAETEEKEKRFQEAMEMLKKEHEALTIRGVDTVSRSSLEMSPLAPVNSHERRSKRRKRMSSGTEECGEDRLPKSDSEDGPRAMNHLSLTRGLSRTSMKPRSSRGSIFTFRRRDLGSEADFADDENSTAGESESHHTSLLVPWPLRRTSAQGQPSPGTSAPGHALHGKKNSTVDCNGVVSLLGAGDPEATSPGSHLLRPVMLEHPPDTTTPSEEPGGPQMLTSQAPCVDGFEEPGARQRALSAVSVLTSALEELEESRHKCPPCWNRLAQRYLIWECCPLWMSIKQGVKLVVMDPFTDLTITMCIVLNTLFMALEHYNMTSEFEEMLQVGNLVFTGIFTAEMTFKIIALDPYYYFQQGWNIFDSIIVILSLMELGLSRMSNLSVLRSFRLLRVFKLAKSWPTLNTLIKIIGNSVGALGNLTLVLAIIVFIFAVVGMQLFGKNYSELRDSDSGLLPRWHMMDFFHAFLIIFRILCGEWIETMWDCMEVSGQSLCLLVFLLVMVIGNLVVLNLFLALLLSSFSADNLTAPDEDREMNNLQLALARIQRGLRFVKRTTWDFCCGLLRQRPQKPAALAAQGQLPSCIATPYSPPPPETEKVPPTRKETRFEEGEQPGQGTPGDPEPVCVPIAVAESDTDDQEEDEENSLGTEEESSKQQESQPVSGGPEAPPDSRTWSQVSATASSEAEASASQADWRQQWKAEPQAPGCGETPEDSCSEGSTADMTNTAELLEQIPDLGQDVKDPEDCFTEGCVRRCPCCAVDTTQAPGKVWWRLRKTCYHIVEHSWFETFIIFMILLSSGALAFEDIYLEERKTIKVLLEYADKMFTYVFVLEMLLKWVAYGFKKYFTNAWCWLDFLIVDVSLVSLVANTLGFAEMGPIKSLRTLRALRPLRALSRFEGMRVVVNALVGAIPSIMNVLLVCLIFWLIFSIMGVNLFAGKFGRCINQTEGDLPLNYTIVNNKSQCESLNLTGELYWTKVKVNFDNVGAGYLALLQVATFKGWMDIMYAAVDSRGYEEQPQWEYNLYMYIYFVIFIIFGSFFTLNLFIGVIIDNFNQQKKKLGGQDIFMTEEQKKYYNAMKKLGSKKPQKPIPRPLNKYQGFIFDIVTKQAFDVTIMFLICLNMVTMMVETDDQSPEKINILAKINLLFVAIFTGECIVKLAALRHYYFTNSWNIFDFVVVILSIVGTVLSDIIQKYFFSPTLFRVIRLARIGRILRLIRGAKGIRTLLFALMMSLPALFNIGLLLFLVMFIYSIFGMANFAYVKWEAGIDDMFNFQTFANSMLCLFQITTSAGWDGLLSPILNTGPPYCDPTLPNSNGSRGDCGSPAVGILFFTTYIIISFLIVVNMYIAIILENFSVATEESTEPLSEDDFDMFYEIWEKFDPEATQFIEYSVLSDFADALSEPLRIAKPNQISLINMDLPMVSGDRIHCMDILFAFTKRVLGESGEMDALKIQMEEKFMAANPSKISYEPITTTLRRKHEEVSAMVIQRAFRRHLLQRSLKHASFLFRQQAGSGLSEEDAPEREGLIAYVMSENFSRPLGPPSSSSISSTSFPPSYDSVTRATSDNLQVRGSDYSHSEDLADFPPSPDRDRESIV
The target in data set [7] is Sodium channel protein type 1 subunit alpha (Homo sapiens) (UniProt P35498). In words: Activation of human Nav1.1 expressed in HEK293 cells assessed as ratio of compound activation AUC to baseline activation AUC at 0.37 uM at -120 mV holding potential by Qpatch assay. The data set is classed as cell-based.
The target in data set [8] is Sodium channel protein type 3 subunit alpha (Homo sapiens) (UniProt Q9NY46). The data set is described as follows: Activation of human Nav1.3 expressed in CHOK1 cells assessed as ratio of compound activation AUC to baseline activation AUC at 3.3 uM at -120 mV holding potential by Qpatch assay. The data set is classed as cell-based.
For data set [9], the target named is Sodium channel protein type 1 subunit alpha (Homo sapiens) (UniProt P35498). In words: Activation of human Nav1.1 expressed in HEK293 cells assessed as ratio of compound activation AUC to baseline activation AUC at 1.11 uM at -120 mV holding potential by Qpatch assay. Format: cell-based.
Data set [10] shares this target. In words: Activation of human Nav1.1 expressed in HEK293 cells at 3.3 uM at -120 mV holding potential by Qpatch assay relative to control. The data set is classed as cell-based.
Data set [11] shares this target. In words: Activation of human Nav1.1 expressed in HEK293 cells assessed as ratio of compound activation AUC to baseline activation AUC at 3.3 uM at -120 mV holding potential by Qpatch assay. The data set is classed as cell-based.
Data set [12] has as its target Sodium channel protein type 1 subunit alpha (Mus musculus) (UniProt A2APX8). The data set is described as follows: Activation of Nav1.1 in C57BL/6 mouse GABAergic cortical neurons assessed as rescue of ICA-121431-induced neuronal firing loss at 300 nM at holding potential -65 mV by current clamp assay.

Molecules are shown by their SMILES. Active and inactive are the calls of the source. No cut-off for these calls is given here. Non-standard residues stand in square brackets, D forms with d. Residues, ends and D or L forms follow the SMILES beside them. 1Nal = N[C@@H](Cc1cccc2ccccc12)C(=O)O; 2Nal = N[C@@H](Cc1ccc2ccccc2c1)C(=O)O

`CC[C@H](C)[C@H](NC(=O)[C@H](CCCCN)NC(=O)[C@@H](NC(=O)[C@@H](N)CCCNC(=N)N)[C@@H](C)CC)C(=O)NCC(=O)N[C@@H](CC(C)C)C(=O)N[C@@H](Cc1ccccc1)C(=O)N[C@@H](CC(=O)O)C(=O)N[C@@H](CCC(N)=O)C(=O)N[C@@H](CC(C)C)C(=O)N[C@@H](CO)C(=O)N[C@@H](CCCNC(=N)N)C(=O)N[C@@H](CC(C)C)C(N)=O` (H-RIKIGLFDQLSRL-NH2): the Ratio AUC in [1] was 1; in [2], 1.1; in data set [3], 1.3; in [4] it was 0.9; in data set [5], 0.8; in data set [6], 1. Moreover, the Ratio AUC in data set [7] came out at 1; in data set [8], 1.2; in data set [9] it was 1.1; in data set [11], 1.4. In data set [10], the Activity is 40%.
Consider `CC[C@H](C)[C@H](NC(=O)[C@H](CCCCN)NC(=O)[C@@H](NC(=O)[C@@H](N)CCCNC(=N)N)[C@@H](C)CC)C(=O)NCC(=O)N[C@@H](CC(C)C)C(=O)N[C@@H](Cc1cccc2ccccc12)C(=O)N[C@@H](CC(=O)O)C(=O)N[C@@H](CCC(N)=O)C(=O)N[C@@H](CC(C)C)C(=O)N[C@@H](CO)C(=O)N[C@@H](CCCNC(=N)N)C(=O)N[C@@H](CC(C)C)C(N)=O` (H-RIKIGL[1Nal]DQLSRL-NH2), for which the Ratio AUC was determined as 1 in data set [1]; 2.9 in data set [2]; 3.1 in data set [3]; 1.8 in [4]; 1.4 in data set [5]; 1.7 in data set [6]. Besides, the Ratio AUC stood at 1.2 in [7], 2 in [8], 1.8 in data set [9] and 3.1 in [11]. Also, the result in [12] was Active.
Take `CC[C@H](C)[C@H](NC(=O)[C@H](CCCCN)NC(=O)[C@@H](NC(=O)[C@@H](N)CCCNC(=N)N)[C@@H](C)CC)C(=O)NCC(=O)N[C@@H](CC(C)C)C(=O)N[C@@H](Cc1ccc2ccccc2c1)C(=O)N[C@@H](CC(=O)O)C(=O)N[C@@H](CCC(N)=O)C(=O)N[C@@H](CC(C)C)C(=O)N[C@@H](CO)C(=O)N[C@@H](CCCNC(=N)N)C(=O)N[C@@H](CC(C)C)C(N)=O` (H-RIKIGL[2Nal]DQLSRL-NH2): the Ratio AUC amounted to 1.3 in data set [1]; 4 in data set [2]; 6.7 in data set [3]; 2.4 in data set [4]; 1.6 in data set [5]; 4 in data set [6]. Also, the Ratio AUC in data set [7] was determined as 2.1; in data set [8] it was 1.9; in data set [9], 5; in [11], 10.7.
On to `CC[C@H](C)[C@H](NC(=O)[C@H](CCCNC(=N)N)NC(=O)[C@@H](NC(=O)[C@@H](N)CCCNC(=N)N)[C@@H](C)CC)C(=O)NCC(=O)N[C@@H](CC(C)C)C(=O)N[C@@H](Cc1ccc2ccccc2c1)C(=O)N[C@@H](CC(=O)O)C(=O)N[C@@H](CCC(N)=O)C(=O)N[C@@H](CC(C)C)C(=O)N[C@@H](CC(C)C)C(=O)N[C@@H](CCCNC(=N)N)C(=O)N[C@@H](CC(C)C)C(N)=O` (H-RIRIGL[2Nal]DQLLRL-NH2), for which the Ratio AUC in [1] was determined as 1.4; in data set [2], 9.6; in data set [3] it was 8.1; in [4], 7.1; in data set [5] it was 1.6; in data set [6] it was 1.3. Further, the Ratio AUC in [7] came to 2.5; in [8] it was 4.4; in data set [9] it was 5.2; in [11] it was 12.7. The same compound yielded an Activity in data set [10] of 1170%.
